Experiments:
Danio rerio embryo = assay: BMC10 any morphological effect or mortality at 120 hpf; higher = less toxic
Experimental: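 ZBEscreen: dechorionated Tropical 5D zebrafish embryos were exposed from 4 hpf in 96-well plates (1% DMSO, 28 °C). All compounds were first tested at 100 µM; hits were retested at 0.005-100 µM. Morphology and mortality were scored at 120 hpf and fitted as BMC10 (3-parameter log-logistic, extra risk). The embryonic photomotor response at 24 hpf and the larval photomotor response at 120 hpf are given as lowest effect levels (K-S test, p<0.01). NA = not significant up to 100 µM; NT = not tested.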

HL-60 = assay: Cell Health Index (toxicity pseudo-probability over dose series) (index 0-1); higher = more cytotoxic / cell stress;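 further: HL-60 cells exposed 4 h at 37 °C to ten threefold dilutions spanning 5 nM to 100 µM, multiparametric flow cytometry features scored by machine-learning classification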

Compound | BMC10 any morphological effect or mortality (Danio rerio embryo) | Cell Health Index (HL-60)
CC(C)OC(=O)[C@H](C)NP(=O)(OC[C@H]1O[C@@H](n2ccc(=O)[nH]c2=O)[C@](C)(F)[C@@H]1O)Oc1ccccc1 (stereo partly specified) [Sofosbuvir] | > 100 µM | 0.166
CCOC(=O)C1=C[C@@H](OC(CC)CC)[C@H](NC(C)=O)[C@@H](N)C1.O=P(O)(O)O [Oseltamivir] | > 100 µM | 0.252
NC(=O)c1nc(F)c[nH]c1=O [Favipiravir] | > 100 µM | 0.248
CC(C)CN(C[C@@H](O)[C@H](Cc1ccccc1)NC(=O)O[C@H]1CCOC1)S(=O)(=O)c1ccc(N)cc1 [Amprenavir] | > 100 µM | 0.181
[Cl-].c1c2c(cc3c1OCO3)-c1cc3ccc4c(c3c[n+]1CC2)OCO4 [Coptisine] | > 100 µM | 0.777
CC(C)CN(C[C@@H](OP(=O)([O-])[O-])[C@H](Cc1ccccc1)NC(=O)O[C@H]1CCOC1)S(=O)(=O)c1ccc(N)cc1.[Ca+2] [Fosamprenavir] | > 100 µM | 0.242
CC(C)[C@H](NC(=O)c1ccc2ccccc2n1)C(=O)N[C@@H](CC(=O)O)C(=O)COc1c(F)cccc1F [Q-VD-OPH] | > 100 µM | 0.221
CCN(CCO)CCCC(C)Nc1ccnc2cc(Cl)ccc12.O=S(=O)(O)O (stereo unspecified) [Hydroxychloroquine] | > 100 µM | 0.211
C1=C2CCCN[C@H]2[C@@H]2C[C@H]1[C@H]1CCCCN1C2 [Aloperine] | > 100 µM | 0.209
CC(=O)N[C@@H](CS)C(=O)O [N-acetyl-L-Cysteine] | > 100 µM | 0.143
Oc1cc(O)cc(/C=C/c2ccc(O)cc2O)c1 [Oxyresveratrol] | > 100 µM | 0.673
COC(=O)N[C@H](C(=O)N1CCC[C@H]1c1nc2cc([C@H]3CC[C@H](c4cc5nc([C@@H]6CCCN6C(=O)[C@@H](NC(=O)OC)[C@@H](C)OC)[nH]c5cc4F)N3c3cc(F)c(N4CCC(c5ccc(F)cc5)CC4)c(F)c3)c(F)cc2[nH]1)[C@@H](C)OC [Pibrentasvir] | > 100 µM | 0.268
Nc1ccn([C@H]2CC[C@@H](CO)O2)c(=O)n1 [Zalcitabine] | > 100 µM | 0.193
O=C(O)c1cc(O)c2c(c1)[C@H]([C@H]1c3cc(C(=O)O)cc(O)c3C(=O)c3c(O[C@@H]4O[C@H](CO)[C@@H](O)[C@H](O)[C@H]4O)cccc31)c1cccc(O[C@@H]3O[C@H](CO)[C@@H](O)[C@H](O)[C@H]3O)c1C2=O [Sennoside A] | > 100 µM | 0.422
C=C1[C@H](CO)[C@@H](O)C[C@@H]1n1cnc2c(=O)nc(N)[nH]c21.O [Entecavir] | > 100 µM | 0.178
Nc1nccc2c1ncn2[C@@H]1O[C@H](CO)[C@@H](O)[C@H]1O [3-Deazaadenosine] | > 100 µM | 0.318
O=c1[nH]cc(F)c(=O)[nH]1 [5-Fluorouracil] | > 100 µM | 0.159
O=C(/C=C/c1ccc(O)c(O)c1)O[C@@H]1C[C@](O)(C(=O)O)C[C@@H](O)[C@H]1O [Chlorogenic acid] | > 100 µM | 0.232
CC(C)(C)NC(=O)[C@@H]1C[C@@H]2CCCC[C@@H]2CN1C[C@@H](O)[C@H](Cc1ccccc1)NC(=O)[C@H](CC(N)=O)NC(=O)c1ccc2ccccc2n1.CS(=O)(=O)O [Saquinavir] | > 100 µM | 0.87
Cc1cc(C)c(Nc2ccnc(Nc3ccc(C#N)cc3)n2)c(C)c1 [Dapivirine] | > 100 µM | 0.836
CCCn1c(=O)[nH]c2nc(-c3ccc(S(=O)(=O)N4CCN(c5ccc(Cl)cc5)CC4)cc3)[nH]c2c1=O [PSB-603] | > 100 µM | 0.489
COc1ccc(C2CC(=O)c3c(O)cc(O)cc3O2)cc1O (stereo unspecified) [Hesperetin] | > 100 µM | 0.258
Cn1c(CNc2ccc(C(=N)N)cc2)nc2cc(C(=O)N(CCC(=O)O)c3ccccn3)ccc21 [Dabigatran] | > 100 µM | 0.137
O=c1cc(-c2ccc(O)c(-c3c(O)cc(O)c4c(=O)cc(-c5ccc(O)cc5)oc34)c2)oc2cc(O)cc(O)c12 [Amentoflavone] | > 100 µM | 0.74

Compound | BMC10 any morphological effect or mortality (Danio rerio embryo) | Cell Health Index (HL-60)
c1ccc(CNCc2ccc(CN3CCCNCCNCCCNCC3)cc2)nc1 [AMD 3465 parent] | > 100 µM | 0.232
COC(=O)N[C@H](C(=O)N1CC2(CC2)C[C@H]1c1ncc(-c2ccc3c(c2)C(F)(F)c2cc(-c4ccc5nc([C@@H]6[C@H]7CC[C@H](C7)N6C(=O)[C@@H](NC(=O)OC)C(C)C)[nH]c5c4)ccc2-3)[nH]1)C(C)C [Ledipasvir] | > 100 µM | 0.231
CCOCc1nc2c(N)nc3ccccc3c2n1CC(C)(C)O [Resiquimod] | > 100 µM | 0.38
NC(=O)c1ncn([C@@H]2O[C@H](CO)[C@@H](O)[C@H]2O)c1O [Mizoribine] | > 100 µM | 0.202
Nc1nc(S)c2nc[nH]c2n1 [Thioguanine] | > 100 µM | 0.294
O=C(O)C[C@@H]1C(=O)O[C@H]2[C@@H]3OC(=O)c4cc(O)c(O)c(O)c4-c4c(cc(O)c(O)c4O)C(=O)OC[C@H]2O[C@@H](OC(=O)c2cc(O)c(O)c(O)c2)[C@@H]3OC(=O)c2cc(O)c(O)c3c2[C@H]1[C@H](O)C(=O)O3 [Chebulagic acid] | > 100 µM | 0.874
OC[C@H]1OC(O)C[C@@H](O)[C@@H]1O (stereo partly drawn) [2-deoxy-D-Glucose] | > 100 µM | 0.325
O=c1[nH]cnc2c1ncn2[C@H]1CC[C@@H](CO)O1 [Didanosine] | > 100 µM | 0.159
O=c1cc(-c2ccc(O)c(O)c2)oc2cc(O[C@@H]3O[C@H](CO)[C@@H](O)[C@H](O)[C@H]3O)cc(O)c12 [Luteoloside] | > 100 µM | 0.345
OCC1=C[C@@H](O)[C@@H]2C=CO[C@@H](O[C@@H]3O[C@H](CO)[C@@H](O)[C@H](O)[C@H]3O)[C@H]12 [Aucubin] | > 100 µM | 0.304
O=C(O)[C@H]1O[C@@H](Oc2cc3oc(-c4ccc(O)cc4)cc(=O)c3c(O)c2O)[C@H](O)[C@@H](O)[C@@H]1O [Scutellarin] | > 100 µM | 0.476
CC(=O)Nc1ccc(C(=O)O)cc1.CC(=O)Nc1ccc(C(=O)O)cc1.CC(=O)Nc1ccc(C(=O)O)cc1.CC(O)CN(C)C.CC(O)CN(C)C.CC(O)CN(C)C.O=c1nc[nH]c2c1ncn2[C@@H]1O[C@H](CO)[C@@H](O)[C@H]1O [Inosine] | > 100 µM | 0.242
CC(C)CC(=O)N[C@H](C(=O)N[C@H](C(=O)N[C@@H](CC(C)C)[C@@H](O)CC(=O)N[C@@H](C)C(=O)N[C@@H](CC(C)C)[C@@H](O)CC(=O)O)C(C)C)C(C)C [Pepstatin A] | > 100 µM | 0.154
COc1cc2cc(Oc3ccc4ccc(=O)oc4c3)c(=O)oc2cc1O [Daphnoretin] | > 100 µM | 0.178
Cc1nc(N(C)C(=O)Cc2ccc(-c3ccccn3)cc2)sc1S(N)(=O)=O [Pritelivir] | > 100 µM | 0.209
Nc1ccn([C@@H]2O[C@H](CO)[C@@H](O)[C@@H]2O)c(=O)n1 [Cytarabine] | > 100 µM | 0.203
Nc1ccn(C[C@@H](CO)OCP(=O)(O)O)c(=O)n1 [Cidofovir] | > 100 µM | 0.144
Cl.NCCc1ccc(S(=O)(=O)F)cc1 [AEBSF] | > 100 µM | 0.32
CC(C)c1nc(CN(C)C(=O)N[C@H](C(=O)N[C@@H](Cc2ccccc2)C[C@H](O)[C@H](Cc2ccccc2)NC(=O)OCc2cncs2)C(C)C)cs1 [Ritonavir] | > 100 µM | 0.532
O=P([O-])(O)C(O)(Cc1cccnc1)P(=O)(O)O.[Na+] [Risedronic acid] | > 100 µM | 0.203
O.Oc1cc(O)c2c(c1)O[C@H](c1ccc(O)c(O)c1)[C@@H](O)C2 (racemic) [(±)-Catechin] | > 100 µM | 0.804
CC(C)Cn1cnc2c(N)nc3ccccc3c21 [Imiquimod] | > 100 µM | 0.269
Cc1nnc(C(C)C)n1[C@@H]1C[C@H]2CC[C@@H](C1)N2CC[C@H](NC(=O)C1CCC(F)(F)CC1)c1ccccc1 [Maraviroc] | > 100 µM | 0.155
N[C@H]1CONC1=O [L-Cycloserine] | > 100 µM | 0.19

From the supplement of paper PMC11821682
